Source: patent publication US20150272939A1, “Identification of Small Molecule Inhibitors of Jumonji AT-Rich Interactive Domain 1A (JARID1A) and 1B (JARID1B) Histone Demethylase” (Yale University, priority 2012, published 2015)
Counter-ions that a name gives are not always drawn. Like-named read-outs stand apart in the source and are kept apart here.

Key:
JARID1B = target: T1, JARID1B (Homo sapiens, UniProt Q9UGL1); assay: FLAG-JARID1B histone demethylase assay with AlphaScreen detection (HTS and dose response); type: biochemical; conditions: for inhibition at 20 µM: read-out: Inhibitory effect (percent); for Assay − Artifact Signal (percent): assay signal minus artifact signal; for Assay Signal (percent): effect of compound in JARID1B AlphaScreen assay;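 for Assay Signal (percent): compound tested at 20 µM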;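 for Assay − Artifact Signal (percent): compound tested at 20 µM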;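 for all read-outs here: FLAG-tagged JARID1B at 4 nM acting on a biotinylated H3K4me3 peptide, demethylation read by AlphaScreen luminescence, with hits checked against bio-H3K4me2 without enzyme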
T1 construct: The FLAG tagged full length JARID1B enzyme was expressed in Sf21 insect cells using FLAG-JARID1B baculoviruses; FLAG (N); made in house; host or cells: Sf21 insect cells (baculovirus)
T1 sequence (Q9UGL1 whole entry): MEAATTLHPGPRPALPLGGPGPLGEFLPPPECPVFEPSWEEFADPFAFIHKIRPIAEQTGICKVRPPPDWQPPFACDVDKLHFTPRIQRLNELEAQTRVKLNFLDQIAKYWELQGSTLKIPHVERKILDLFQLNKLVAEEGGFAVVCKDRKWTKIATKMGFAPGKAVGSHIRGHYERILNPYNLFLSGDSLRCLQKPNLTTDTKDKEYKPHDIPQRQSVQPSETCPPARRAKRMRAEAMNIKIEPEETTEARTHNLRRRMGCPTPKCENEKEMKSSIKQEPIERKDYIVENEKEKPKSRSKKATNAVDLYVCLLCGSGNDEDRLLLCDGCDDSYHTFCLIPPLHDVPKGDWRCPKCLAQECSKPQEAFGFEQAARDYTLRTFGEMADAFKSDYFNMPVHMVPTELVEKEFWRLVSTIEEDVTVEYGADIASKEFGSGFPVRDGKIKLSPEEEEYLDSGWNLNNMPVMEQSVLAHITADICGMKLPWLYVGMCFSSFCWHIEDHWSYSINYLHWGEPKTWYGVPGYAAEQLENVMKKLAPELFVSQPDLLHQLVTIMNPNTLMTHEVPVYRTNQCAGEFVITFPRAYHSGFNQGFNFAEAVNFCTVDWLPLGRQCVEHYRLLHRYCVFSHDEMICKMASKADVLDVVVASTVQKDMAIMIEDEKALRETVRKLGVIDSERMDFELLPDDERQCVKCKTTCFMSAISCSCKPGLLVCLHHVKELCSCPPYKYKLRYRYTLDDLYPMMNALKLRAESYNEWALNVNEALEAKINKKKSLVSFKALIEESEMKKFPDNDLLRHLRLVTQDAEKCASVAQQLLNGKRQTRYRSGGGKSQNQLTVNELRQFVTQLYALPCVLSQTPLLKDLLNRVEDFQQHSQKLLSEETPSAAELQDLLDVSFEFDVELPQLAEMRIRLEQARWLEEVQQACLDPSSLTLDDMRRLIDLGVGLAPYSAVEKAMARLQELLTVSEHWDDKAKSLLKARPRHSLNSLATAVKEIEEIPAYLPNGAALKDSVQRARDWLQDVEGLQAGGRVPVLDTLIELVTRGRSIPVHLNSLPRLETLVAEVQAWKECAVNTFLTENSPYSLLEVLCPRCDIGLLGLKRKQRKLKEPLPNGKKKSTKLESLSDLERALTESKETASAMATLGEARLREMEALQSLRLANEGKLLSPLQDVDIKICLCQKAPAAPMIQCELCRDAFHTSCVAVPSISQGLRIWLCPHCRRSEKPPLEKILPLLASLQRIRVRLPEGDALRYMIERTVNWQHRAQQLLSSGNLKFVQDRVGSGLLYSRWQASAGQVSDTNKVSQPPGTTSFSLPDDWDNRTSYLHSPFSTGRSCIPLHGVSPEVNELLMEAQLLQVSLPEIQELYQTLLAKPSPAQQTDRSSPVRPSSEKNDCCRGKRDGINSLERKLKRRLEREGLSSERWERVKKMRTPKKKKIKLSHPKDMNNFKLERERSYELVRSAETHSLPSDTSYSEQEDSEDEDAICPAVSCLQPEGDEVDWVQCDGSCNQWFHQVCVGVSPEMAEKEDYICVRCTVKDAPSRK

[1] = AlphaScreen counterscreen against bio-H3K4me2 peptide in the absence of enzyme (artifact signal); conditions: for Artifact signal: effect of the compound when it is incubated with bio-H3K4me2 peptide: counterscreen, no enzyme; for Artifact Signal (percent): effect of the compound when incubated with bio-H3K4me2 peptide (counterscreen, no enzyme);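 for all read-outs here: counterscreen run without enzyme against bio-H3K4me2 peptide to remove false positive hits from the JARID1 demethylase AlphaScreen screen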
[2] = high-throughput screen, compound 20 μM, IDs marked *: additional hits under reaction condition with 1 mM α-KG
[3] = validation of HTS actives, total signal before subtraction of artifact signal
[4] = high-throughput screen, compound 20 μM, standard demethylase conditions (10 μM α-KG, 50 μM Fe (II))

| SMILES | Validation result of HTS active: effect of the compound in the JARID1B AlphaScreen demethylase assay (JARID1B; [3]) | Artifact signal: effect of the compound when it is incubated with bio-H3K4me2 peptide [1] | Assay − Artifact Signal (percent) (JARID1B) | inhibition at 20 µM (JARID1B; [4]) | Assay Signal (percent) (JARID1B; validation of HTS actives) | Artifact Signal (percent) [1] | also measured |
| --- | --- | --- | --- | --- | --- | --- | --- |
| CN[C@@H]1[C@H](O[C@H]2O[C@H](CO)[C@@H](N)[C@H](O)[C@H]2O)O[C@H]2C[C@@H](N)[C@H](O[C@@H]3[C@H](O)[C@@H](O)[C@H](N)C[C@@H]3N)O[C@@H]2[C@@H]1O (stereo in doubt) [YU155086, APRAMYCIN, reference compound] | −19.45 | −4.67 |  |  |  |  | inhibition at 20 µM (JARID1B; [2]): 43.2% |
| O=C(Nc1ccc(N2CCC(c3ccccc3)C2)c(C(=O)O)c1)c1cccc(Cl)c1 (centres unmarked) [YU208239] |  |  | 9.53% | 50.2% | 36.49% | 26.96% |  |
| Clc1ccc2nc(-c3ccccn3)c(Nc3ccc4c(c3)OCO4)n2c1 [YU173003] |  |  | 37.18% | 83.1% | 42.73% | 3.56% |  |
| O=C(Oc1cc(O)cc2c1C[C@@H](OC(=O)c1cc(O)c(O)c(O)c1)[C@@H](c1cc(O)c(O)c(O)c1)O2)c1cc(O)c(O)c(O)c1 [YU155091, EPIGALLOCATECHIN 3,5-DIGALLATE, reference compound] | −0.05 | −3.13 |  | 92.2% |  |  |  |
| O=[N+]([O-])c1cc(O)c(O)c([N+](=O)[O-])c1 [YU034463, 3,5-DINITROCATECHOL, reference compound] |  |  | 27.05% |  | 38.78% | 11.72% | Inhibitory effect (percent) (JARID1B; [4]): 49.87% |
| COC(=O)Nc1nnc(CC2CCCC2)s1 [YU146034] |  |  | 21.12% | 33% | 18.33% | <2.79% |  |
| Fc1cccc(-c2nn3c(-c4ccccc4Cl)nnc3s2)c1 [YU153729] |  |  | 14.96% | 33.9% | 11.41% | −3.54% |  |
| C=C[C@@H](C1=CC(=O)C(OC)=C(OC)C1=O)c1ccccc1 [YU155075, 3,4-DIMETHOXY- DALBERGIONE, reference compound] |  |  | 38.83% | 75.9% | 49.97% | 11.14% |  |
| c1cncc(-c2nn3c(Cn4cnc5ccccc54)nnc3s2)c1 [YU154091] |  |  | 24.37% | 40% | 29.87% | 5.50% |  |
| O=c1c(O)c(-c2ccc(O)c(O)c2)oc2c(O)c(O)cc(O)c12 [YU155360, GOSSYPETIN, reference compound] |  |  | 18.96% | 103% | 100.77% | 81.81% |  |
| CC[C@]1(O)C[C@H]2CN(CCc3c([nH]c4ccccc34)[C@@](C(=O)OC)(c3cc4c(cc3OC)N(C=O)[C@H]3[C@@](O)(C(=O)OC)[C@H](OC(C)=O)[C@]5(CC)C=CCN6CC[C@]43[C@@H]65)C2)C1.O=S(=O)(O)O [YU221071, VINCRISTINE SULFATE, reference compound] |  | −1.27 |  |  |  |  | Inhibitory effect (percent) (JARID1B): 44.20%; Validation effect minus artifact signal (JARID1B): 1.86; Validation result of HTS active: effect of the compound in the JARID1B AlphaScreen demethylase assay (JARID1B): 0.59 |
| Cc1nn2c(=O)[nH]c3sc4c(c3c2nc1=O)CC(C)(C)OC4 [YU152236] |  |  | 43.69% | 51.6% | 49.40% | 5.71% |  |
| O=C(O)c1cc(O)c2c(c1)[C@H]([C@H]1c3cc(C(=O)O)cc(O)c3C(=O)c3c(O[C@@H]4O[C@H](CO)[C@H](O)[C@H](O)[C@H]4O)cccc31)c1cccc(O[C@@H]3O[C@H](CO)[C@H](O)[C@H](O)[C@@H]3O)c1C2=O (stereo in doubt) [YU155305, SENNOSIDE B, reference compound] | 4.04 | −0.34 |  | 105% |  |  |  |
| Oc1cc(O)c2c(c1)O[C@H](c1cc(O)c(O)c(O)c1)[C@H](O)C2 [YU155087, EPIGALLOCATECHIN, reference compound] |  |  | 19.74% | 55.5% | 44.50% | 24.76% |  |
| NNC(=O)c1ccncc1 [YU033872, ISONIAZID, reference compound] |  |  | 51.63% | 54.5% | 45.10% | −6.34% |  |

Now from value to molecule, other results behind:

| Validation result of HTS active: effect of the compound in the JARID1B AlphaScreen demethylase assay (JARID1B; [3]) | Artifact signal: effect of the compound when it is incubated with bio-H3K4me2 peptide [1] | Assay − Artifact Signal (percent) (JARID1B) | inhibition at 20 µM (JARID1B; [4]) | Assay Signal (percent) (JARID1B; validation of HTS actives) | Artifact Signal (percent) [1] | SMILES | also measured |
| --- | --- | --- | --- | --- | --- | --- | --- |
|  |  | 31.75% | 94.9% | 22.64% | −9.11% | O=c1c(-c2cc(O)c(O)c(O)c2)coc2cc(O)c(O)c(O)c12 [YU155411, IRIGENOL, reference compound] |  |
| −1.90 | −4.45 |  | 37.7% |  |  | CCCCOc1ccc(NC(=O)CSc2nnnn2C)cc1 [YU152624] |  |
|  |  | 8.99% | 30.9% | 12.15% | 3.15% | Cc1cc(C)nc(Nc2ccc(N(C)C)cc2)n1 [YU146020] |  |
|  |  | 52.70% | 32% | 50.21% | −2.49% | Cn1cnnc1SCC(=O)c1ccc(C(C)(C)C)cc1 [YU149180] |  |
| 3.80 | −1.99 |  | 37.3% |  |  | Fc1ccccc1-c1nc2ncccc2o1 [YU172071] |  |
| 4.23 | −2.95 |  | 66% |  |  | CN(C)CCCN1c2ccccc2Sc2ccc(C(F)(F)F)cc21 [YU034370, TRIFLUPROMAZINE HYDROCHLORIDE, reference compound] |  |
|  |  | 96.69% |  | 99.69% | 3.00% | O=C(O)c1ccnc(C(=O)O)c1 [YU221215, 2,4-Pyridinedicarboxylic Acid, reference compound] | inhibition at 20 µM (JARID1B; [2]): 40.8% |
| 6.95 | 1.46 |  | 39.4% |  |  | Cc1ccc(NC(=O)CC2SC3=NCCCN3C2=O)c(C)c1 (centres unmarked) [YU152183] |  |
|  |  | 41.45% | 43.6% | 35.57% | −5.88% | Cc1ccc(S(=O)(=O)C=CC#N)cc1 (single isomer, unassigned) [YU154885, BAY 11-7082, reference compound] |  |
| 28.52 | 27.95 |  | 48.1% |  |  | c1cc2c(cc1CNc1ccc(N3CCCC3)cc1)OCO2 [YU149834] |  |
| 1.32 | −4.74 |  | 45.9% |  |  | CCOc1cc(Cl)c(S(=O)(=O)n2ccnc2)cc1Cl [YU152583] |  |
|  |  | 15.48% | 100% | 96.04% | 80.56% | O=C(O[C@@H]1Cc2c(O)cc(O)cc2O[C@@H]1c1cc(O)c(O)c(O)c1)c1cc(O)c(O)c(O)c1 [YU040338, Epigallocatechin gallate, reference compound] |  |
|  |  | 41.47% | 68.8% | 55.74% | 14.27% | N[C@@H](Cc1ccc(O)c(O)c1)C(=O)O [YU034332, LEVODOPA, reference compound] |  |
|  |  | 15.81% | 47% | 16.67% | 0.86% | CCN(CC)CCOc1ccc(/C(=C(\Cl)c2ccccc2)c2ccccc2)cc1 [YU033752, CLOMIPHENE CITRATE, reference compound] |  |
| −3.10 | −6.36 |  | 97.5% |  |  | Cc1ccc(NC(=O)C2OCCc3ccccc32)cc1Cl (centres unmarked) [YU150403] |  |
|  |  | 23.24% | 31.1% | 19.36% | −3.87% | Cn1c(S)nnc1CSCc1ccc(F)cc1 [YU147498] |  |
|  |  | 16.81% | 30.8% | 12.98% | −3.82% | COc1cc(C(=S)N2CC(C)OC(C)C2)cc(OC)c1O (centres unmarked) [YU151441] |  |
| −1.42 | −2.83 | 32.68% | 51.3% | 42.68% | 10.00% | NCCc1ccc(O)c(O)c1 [YU033802, DOPAMINE HYDROCHLORIDE, reference compound] | Inhibitory effect (percent) (JARID1B; high-throughput screen, compound 20 μM, standard demethylase conditions (10 μM α-KG, 50 μM Fe (II)), HYDROCHLORIDE): 46.86% |
